The source of these data is patent US20240246968A1, “SMALL MOLECULE INHIBITORS OF KRAS G12C MUTANT” (Merck Sharp & Dohme LLC, priority 2021, published 2024).

Assay [1] deals with biotinylated KRAS G12C protein (GMP-PNP loaded) and GST-tagged Ras binding domain of c-RAF (Homo sapiens, UniProt P01116, C118S/C51S/C80L/G12C). Description: RAS:RAF-RBD binding assay (TR-FRET). The note with it: 30-minute incubation with KRAS G12C, then RAF-RBD 60 minute. In kind it is biochemical.
Assay [2] deals with cancer cells with the KRAS G12C mutation. The conditions noted are these: cited from earlier work.
Assay [3] concerns tumor-bearing mice expressing the KRAS G12C mutation. The note with it: cited from earlier work.

Sequence of biotinylated KRAS G12C protein (GMP-PNP loaded) and GST-tagged Ras binding domain of c-RAF (P01116 with tags, fused parts or gaps isoform P01116-2 G12C/C51S/C80L/C118S): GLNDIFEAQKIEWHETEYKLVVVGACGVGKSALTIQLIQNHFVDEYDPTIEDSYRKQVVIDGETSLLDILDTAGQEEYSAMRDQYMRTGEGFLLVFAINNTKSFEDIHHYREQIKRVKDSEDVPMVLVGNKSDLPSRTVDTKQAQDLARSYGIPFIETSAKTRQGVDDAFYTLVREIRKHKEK

In assay [1], `CO[C@H]1CC[C@H](NC/C=C/C(=O)Nc2c(F)cc(C(=O)n3ccc4c(-c5c(C(F)(F)F)cc6c(nc(C)n6C)c5Cl)cccc43)cc2F)CC1` [Example 126, (E)-N-(4-(4-(4-chloro-1,2-dimethyl-6-(trifluoromethyl)-1H-benzo[d]imidazol-5-yl)-1H-indole-1-carbonyl)-2,6-difluorophenyl)-4-(((1r,4r)-4-methoxycyclohexyl)amino)but-2-enamide] showed an IC50 of 28.3 nM. In other words, the double-digit nanomolar range. The same measure, in the same setting: the figure for `COc1c(-c2cccn3c(C(=O)c4cc(F)c(NC(=O)/C=C/CN[C@H]5CC[C@H](OC)CC5)c(F)c4)ccc23)c(C(F)(F)F)cc2c1cnn2C` (single isomer, unassigned) [Example 117, (E)-N-(2,6-difluoro-4-(8-(4-methoxy-1-methyl-6-(trifluoromethyl)-1H-indazol-5-yl)indolizine-3-carbonyl)phenyl)-4-(((1r,4r)-4-methoxycyclohexyl)amino)but-2-enamide] is 56.5 nM. As to `C=CC(=O)N1CC(N2CCN(C(=O)CNc3cc(C4(C)CC4)c(Cl)cc3O)CC2)C1` [ARS-853], the “inhibition of KRAS activity and antiproliferative effect under EGFR activation” value in assay [2] (KRAS G12C mutated cell line, EGFR activation) was “attenuated”. In addition, the induction of apoptosis entry in assay [2] (cancer cells with the KRAS G12C mutation) was “inducing apoptosis”. Compound `CO[C@H]1CC[C@H](NC/C=C/C(=O)Nc2c(F)cc(C(=O)c3ccc4c(-c5c(C(F)(F)F)cc6c(cnn6C)c5Cl)cccn34)cc2F)CC1` (single isomer, unassigned) [Example 118, (E)-N-(4-(8-(4-chloro-1-methyl-6-(trifluoromethyl)-1H-indazol-5-yl)indolizine-3-carbonyl)-2,6-difluorophenyl)-4-(((1r,4r)-4-methoxycyclohexyl)amino)but-2-enamide] displayed an IC50 in assay [1] of 461 nM. This counts as sub-micromolar. Same read-out and setting: next, `CO[C@H]1CC[C@H](NC/C=C/C(=O)Nc2c(F)cc(C(=O)c3ccc4c(-c5cc6ncccc6cc5C(F)(F)F)cccn34)cc2F)CC1` [Example 120, mono(7-(3-(3,5-difluoro-4-((E)-4-(((1r,4r)-4-methoxycyclohexyl)ammonio)but-2-enamido)benzoyl)indolizin-8-yl)-6-(trifluoromethyl)quinolin-1-ium) mono(2,2,2-trifluoroacetate)]: 482 nM; `Cc1nc2c(Cl)c(-c3cccn4c(C(=O)c5cc(F)c(NC(=O)/C=C/CN6CCC[C@H]6CO)c(F)c5)ccc34)c(C(F)(F)F)cc2n1C` [Example 130, mono(4-chloro-5-(3-(3,5-difluoro-4-((E)-4-((2S)-2-(hydroxymethyl)pyrrolidin-1-ium-1-yl)but-2-enamido)benzoyl)indolizin-8-yl)-1,2-dimethyl-6-(trifluoromethyl)-1H-benzo[d]imidazol-3-ium) mono(2,2,2-trifluoroacetate)]: 95.9 nM; `Cc1nc2c(Cl)c(-c3cccn4c(C(=O)c5cc(F)c(NC(=O)/C=C/CN(C)C)c(F)c5)ccc34)c(C(F)(F)F)cc2n1C` [Example 128, mono((E)-4-chloro-5-(3-(4-(4-(dimethylammonio)but-2-enamido)-3,5-difluorobenzoyl)indolizin-8-yl)-1,2-dimethyl-6-(trifluoromethyl)-1H-benzo[d]imidazol-3-ium) mono(2,2,2-trifluoroacetate)]: 159 nM. Still for that read-out and setting: the figure for `CO[C@H]1CC[C@H](NC/C=C/C(=O)Nc2c(F)cc(C(=O)c3ccc4c(-c5cc6c(=O)n(C)ccc6cc5C(F)(F)F)cccn34)cc2F)CC1` [Example 125, (1r,4r)-N-((E)-4-((2,6-difluoro-4-(8-(2-methyl-1-oxo-6-(trifluoromethyl)-1,2-dihydroisoquinolin-7-yl)indolizine-3-carbonyl)phenyl)amino)-4-oxobut-2-en-1-yl)-4-methoxycyclohexan-1-aminium 2,2,2-trifluoroacetate] is 398 nM. In turn, `Cc1nc2c(Cl)c(-c3cccn4c(C(=O)c5cc(F)c(NC(=O)/C=C/CNC6(C)CCOC6)c(F)c5)ccc34)c(C(F)(F)F)cc2n1C` (single isomer, unassigned) [Example 131a, (E)-N-(4-(8-(4-chloro-1,2-dimethyl-6-(trifluoromethyl)-1H-benzo[d]imidazol-5-yl)indolizine-3-carbonyl)-2,6-difluorophenyl)-4-((3-methyltetrahydrofuran-3-yl)amino)but-2-enamide] displayed an IC50 in assay [1] of 13.4 nM.

In turn, `CO[C@H]1CC[C@H](NC/C=C/C(=O)Nc2c(F)cc(C(=O)c3ccc4c(-c5cc6c(cc5C(F)(F)F)CCN(C)C6=O)cccn34)cc2F)CC1` [Example 121, (1r,4r)-N-((E)-4-((2,6-difluoro-4-(8-(2-methyl-1-oxo-6-(trifluoromethyl)-1,2,3,4-tetrahydroisoquinolin-7-yl)indolizine-3-carbonyl)phenyl)amino)-4-oxobut-2-en-1-yl)-4-methoxycyclohexan-1-aminium 2,2,2-trifluoroacetate] had an IC50 in assay [1] of 168 nM. Take `C=CC(=O)N1CCN(c2ncnc3c(F)c(-c4c(O)cccc4F)c(Cl)cc23)CC1` [ARS-1620]: the antitumor action entry in assay [3] is given as “exerts antitumor action”.

In turn, `Cc1nc2c(Cl)c(-c3cccn4c(C(=O)c5cc(F)c(NC(=O)/C=C/CN6CCCC6C(C)(C)O)c(F)c5)ccc34)c(C(F)(F)F)cc2n1C` (stereo not drawn) [Example 129, mono((E)-4-chloro-5-(3-(3,5-difluoro-4-(4-(2-(2-hydroxypropan-2-yl)pyrrolidin-1-ium-1-yl)but-2-enamido)benzoyl)indolizin-8-yl)-1,2-dimethyl-6-(trifluoromethyl)-1H-benzo[d]imidazol-3-ium) mono(2,2,2-trifluoroacetate)] had an IC50 in assay [1] of 101 nM. Same read-out and setting: the figure for `Cc1c(-c2cccn3c(C(=O)c4cc(F)c(NC(=O)/C=C/CN[C@H]5CCOC5)c(F)c4)ccc23)ccc2c1CCC2O` (stereo partly drawn) [Example 132, (3S)—N-((E)-4-((2,6-difluoro-4-(8-(1-hydroxy-4-methyl-2,3-dihydro-1H-inden-5-yl)indolizine-3-carbonyl)phenyl)amino)-4-oxobut-2-en-1-yl)tetrahydrofuran-3-aminium 2,2,2-trifluoroacetate] is 300 nM; for `Cc1nc2c(Cl)c(-c3cccn4c(C(=O)c5cc(F)c(NC(=O)/C=C/CNC6(C)CCOC6)c(F)c5)ccc34)c(C(F)(F)F)cc2n1C` (single isomer, unassigned) [Example 131b, (E)-N-(4-(8-(4-chloro-1,2-dimethyl-6-(trifluoromethyl)-1H-benzo[d]imidazol-5-yl)indolizine-3-carbonyl)-2,6-difluorophenyl)-4-((3-methyltetrahydrofuran-3-yl)amino)but-2-enamide] it is 12.4 nM. Still for that read-out and setting: next, `COc1c(-c2cccc3c2ccn3C(=O)c2cc(F)c(NC(=O)/C=C/CN[C@H]3CCOC3)c(F)c2)c(C(F)(F)F)cc2c1nc(C)n2C` (single isomer, unassigned) [Example 116, mono(2,2,2-trifluoroacetate)]: 14.8 nM; `Cc1nc2c(Cl)c(-c3cccn4c(C(=O)c5cc(F)c(NC(=O)/C=C/CNC6CCC6(C)C)c(F)c5)ccc34)c(C(F)(F)F)cc2n1C` (stereo not drawn) [Example 127, mono((E)-4-chloro-5-(3-(4-(4-((2,2-dimethylcyclobutyl)ammonio)but-2-enamido)-3,5-difluorobenzoyl)indolizin-8-yl)-1,2-dimethyl-6-(trifluoromethyl)-1H-benzo[d]imidazol-3-ium) mono(2,2,2-trifluoroacetate)]: 403 nM. Still for that read-out and setting: next, `Cc1c2cc(C(F)(F)F)c(-c3cccn4c(C(=O)c5cc(F)c(NC(=O)/C=C/CNC6(C)COC6)c(F)c5)ccc34)c(O)c2nn1C` (single isomer, unassigned) [Example 123, (E)-N-(4-((2,6-difluoro-4-(8-(7-hydroxy-2,3-dimethyl-5-(trifluoromethyl)-2H-indazol-6-yl)indolizine-3-carbonyl)phenyl)amino)-4-oxobut-2-en-1-yl)-3-methyloxetan-3-aminium 2,2,2-trifluoroacetate]: 78.4 nM.
